≈ marks a conversion by molar mass, not a printed value.
How the values were obtained:
Plasmodium falciparum = assay: Antimalarial activity against Plasmodium falciparum assessed as SYBR Green uptake after 48 hrs; assay type: functional, organism-based
Staphylococcus aureus = assay: Antibacterial activity against methicillin resistant Staphylococcus aureus ATCC 33591; assay type: functional, organism-based
Enterococcus faecium = assay: Antibacterial activity against vancomycin resistant Enterococcus faecium ATCC 700221; assay type: functional, organism-based
[1] = system: Mycobacterium tuberculosis; assay: Antitubercular activity against Mycobacterium tuberculosis […] ATCC 27294 after 4 days by microplate alamar blue assay; assay type: functional; details: 96 h
Candida albicans = assay: Antifungal activity against amphotericin resistant Candida albicans ATCC 90873 after 12 to 15 hrs by Alamar Blue assay; assay type: functional, organism-based

Structure (SMILES)	IC50 (Plasmodium falciparum) [nM]	IC50 (Staphylococcus aureus) [nM]	IC50 (Enterococcus faecium) [nM]	MIC [1] [µM]	IC50 (Candida albicans) [nM]
CC1=CC[C@H](Br)[C@@]2(C)CC[C@@H](Br)[C@@]3(C)CC[C@H](OC(=O)c4ccc(O)c(c4)C[C@H]12)C(C)(C)O3 [BROMOPHYCOLIDE U]	2100	900	900	22 (≈ 12.9 µg/mL)	> 15000
C=C(C)[C@@H]1CC[C@]2(C)O[C@H]2CC[C@@]2(C)[C@H](Cc3cc(ccc3O)C(=O)O1)C(=C)CC[C@@H]2Br [BROMOPHYCOLIDE R]	1700	> 15000	> 15000	> 50	> 15000
C=C1CC[C@H](Br)[C@@]2(C)CC[C@@H]3O[C@@]3(C)CC[C@@H](C(C)(C)Br)OC(=O)c3ccc(O)c(c3)C[C@H]12 [BROMOPHYCOLIDE S]	900	> 15000	3800	23 (≈ 13.4 µg/mL)	> 15000
